{"source": "patent US20210378247A1", "about": "(priority 2018, published 2021)", "format_in_all_cases": "in vivo", "key": {"Phakopsora pachyrhizi": {"system": "Phakopsora pachyrhizi", "experiment": "Soybean detached leaf disk assay, soybean rust control", "conditions": "detached leaf disks, strains 1×10^8 CFU/mL, azoxystrobin 0.5 ppm", "method": "The susceptible soybean cultivar Williams 82 was used. Soybean plants were planted every 2 weeks and placed inside a growth chamber (Percival Scientific, Inc., Boone, Iowa) maintained at 75% relative humidity with a cycle of 14 h of light (350 μmol m^−2 s^−1 PAR) and 10 h of darkness at 24 and 23° C., respectively, for a constant supply of 2 to 3 week-old rust-free leaves. A mixture of P. pachyrhizi urediniospores obtained from infected soybean leaves collected from Gadsden County, Fla. in 2015 and 2016 was used in this experiment. The details of maintenance and increase of P. pachyrhizi urediniospores have been described elsewhere (Twizeyimana and Hartman 2010, Plant Dis. 94:1453-1460).\nLeaf disks (3.5-cm diameter each) were sprayed with 120 μL of each bacterial strain of interest (1×10^8 CFU/mL of sterile distilled water) using a fingertip sprayer (Container & Packaging Supply, Eagle, Id.) fitted to a 15 mL conical centrifuge tube (Fisher Scientific, Cat No. 14-59-53A). […]\nRust severity was scored by counting the number of sporulating uredinia in two arbitrarily selected 1-cm diameter circle of leaf tissue from an inoculated leaf disk (Table 7). Data was analyzed using analysis of variance (ANOVA) in PROC GLM of SAS (version 9.4; SAS Institute Inc., Cary, N.C.) and significant differences (P<0.05) were observed among treatments."}, "Phytophthora infestans": {"system": "Phytophthora infestans", "conditions": "late blight, tomato leaf disk; strains 1×10^8 CFU/ml, mefenoxam 5 ppm; severity assessed after 7 days"}, "[1]": {"system": "Colletotrichum sublineolum", "experiment": "Sorghum detached leaf assay, anthracnose disease control", "conditions": "strains 1×10^8 CFU/mL, pyraclostrobin 10 ppm, severity assessed after 7 days", "method": "Sorghum cultivar 12-GS9016-KS585 was grown in the greenhouse for a steady supply of leaf tissue for the bacterial strain evaluation. Fully expanded sorghum leaves from 4-6 weeks old plants were excised and cut into equal pieces, 2.5 cm wide. Colletotrichum sublineolum, (obtained from the Dr. Isakeit laboratory at Texas A&M University) was grown on 20% Oatmeal agar for 14 days. The actively growing culture was flooded with sterile distilled water, dislodging the spores. The concentration of the suspension was then adjusted to 1×10^6 spores/mL. Tween 20 was then added to the suspension to 0.05%.\nEach of the bacterial strains of interest was streaked onto Luria Bertani (LB) agar petri plates. A single colony was picked and placed in 50 ml of LB liquid medium or in liquid culture (CHA medium; per L, NaCl (5 g), tryptone (10 g), nutrient broth (8 g), CaCl2 (0.14 mM), MgCl2.6H2O (0.2 mM), and MnCl2.4H2O (0.01 mM)) in a 250-ml flask. […]\nAnthracnose severity was assessed on a scale of 0-4 after 7 days according to Prom, et al., 2016 (Plant Path J. 15(1): 11-16), with few modifications. […] Results (Table 4) were analyzed using analysis of variance (ANOVA) in JMP® (version 13.2.1; SAS Institute Inc., Cary, N.C.) and significant differences (P<0.05) were observed among bacterial strains."}, "Podosphaera xanthii": {"system": "Podosphaera xanthii", "experiment": "Detached squash leaf disk assay, powdery mildew control", "conditions": "detached squash leaf disks, tebuconazole 10 ppm, incubated six days", "method": "Leaf disks of healthy squash leaves were excised and cut into uniform leaf disks 35 mm in diameter using a large cork borer. An experimental unit consisted of a single leaf disk, each treated with a suspension of the selected bacterium. Treatments included AgBiome strains AIP061382, AIP075655, and AIP029105, and control treatments. Controls were non-inoculated and inoculated leaf disks, and the synthetic fungicide tebuconazole at 10 ppm as a positive control. Bacterial strains were prepared as described in Example 2. Each leaf disk was sprayed with 200 μL of the treatment (bacterial suspension or synthetic fungicide) on the adaxial surface 24 hours before inoculation with the pathogen, Podosphaera xanthii (strain obtained from Dr. McGrath laboratory, Cornell University). After treatment with the fungicide, leaf disks were incubated in the dark for 24 hours at 23° C.\nLeaf disks were inoculated by spraying a 1×10^6 suspension of P. xanthii conidia on the treated leaf surface. Treatments were placed into sealed clear plastic boxes and incubated for six days at 25° C. with a relative humidity of 80% and a 12 hour photoperiod. […] The number of powdery mildew colonies were also recorded for each treatment. […] Data was analyzed in SAS JMP version 14.0."}, "Mycosphaerella fijiensis": {"system": "Mycosphaerella fijiensis", "experiment": "Grand Nain leaf piece assay, black sigatoka control", "conditions": "Grand Nain leaf pieces, strains 1×10^8 CFU/mL, mancozeb 10 ppm", "method": "The susceptible musa cultivar Grand Nain was used. Plants were maintained in the greenhouse for a constant supply of disease-free leaves. The inoculum used in this evaluation was a M. fijiensis culture obtained from the International of Tropical Agriculture (IITA), Ibadan, Nigeria and was maintained on V8 Juice agar.\nSmaller leaf pieces (4 cm long×3 cm wide) were cut from the excised leaf. Two leaf pieces were placed in plastic petri dishes with adaxial side on agar amended with 5 mg/liter gibberellic acid. Leaf pieces were sprayed with 120 μL of bacterial strain (1×10^8 CFU/mL of sterile distilled water) using a fingertip sprayer. Petri dishes with leaf pieces were incubated at room temperature in the dark for 24 h. Leaf pieces were then inoculated with a mycelial suspension of M. fijiensis, Mycelial fragments scraped from growing cultures were cut in smaller mycelial tips in sterile distilled (in 50 ml conical tubes) using a homogenizer (Omni International, Kennesaw, Ga.). […]\nData recorded was the most progressed stage on inoculated leaves at the time of data collection (there are six recognized stages for black sigatoka symptom development). Data was analyzed using analysis of variance (ANOVA) in PROC GLM of SAS (version 9.4; SAS Institute Inc., Cary, N.C.) and significant differences (P<0.05) were observed among treatments."}, "[2]": {"system": "Colletotrichum sublineolum", "experiment": "Greenhouse assay, sorghum anthracnose on sorghum plants", "conditions": "greenhouse sorghum plants cv. Seso3; strains 5 g/L sprayed weekly for three weeks", "method": "Sorghum plants (cv. Seso3) were planted in the greenhouse. Thirty five days post planting, the plants were treated with microbial strains (AIP029105, AIP075655 or AIP061382) at the rate of 5 g/L. Other treatments included inoculated check and a fungicide (Mancozeb). The treatments were arranged in a randomized complete block design with three replications, each consisting of three plants. The treatments were sprayed onto the plant until run off. Treatment with biocontrol was done weekly for three consecutive weeks.\nOne day post treatment, the plants were inoculated with a suspension of Colletotrichum sublineolum spores. The inoculum was prepared from a fungal isolate obtained from naturally infected sorghum in Eastern Uganda. The isolate was cultured on potato dextrose agar (PDA; Farm Eur. Laboratories Madrid, Spain), at 26-28° C. for two weeks to achieve sporulation. […]\nDisease incidence was carried out by observing individual plants for the appearance of anthracnose symptoms, starting at 7 days post inoculation, and thereafter on a weekly basis for five weeks. Any plant showing anthracnose symptoms was recorded and contributed to the overall number of infected plants (incidence) succumbing to the disease irrespective of the severity. […] Data was analyzed using analysis of variance (ANOVA) in JMP® (version 14.0.0; SAS Institute Inc., Cary, N.C.)."}}}
{"compound": "CO/C=C(/C(=O)OC)c1ccccc1Oc1cc(Oc2ccccc2C#N)ncn1", "note": "[Azoxystrobin]", "values": [{"measurement": "Percent Disease Control", "setting": "Phakopsora pachyrhizi", "value": 97.0, "unit": "%"}]}
{"compound": "COCC(=O)N(c1c(C)cccc1C)[C@H](C)C(=O)OC", "note": "[Mefenoxam]", "values": [{"measurement": "Percent Disease Control, Confirmation", "setting": "Phytophthora infestans", "value": 75.0, "unit": "%"}, {"measurement": "Percent Disease Control, Primary screen", "setting": "Phytophthora infestans", "value": 75.0, "unit": "%"}]}
{"compound": "COC(=O)N(OC)c1ccccc1COc1ccn(-c2ccc(Cl)cc2)n1", "note": "[Pyraclostrobin]", "values": [{"measurement": "Percent Disease Control, Confirmation", "setting": "[1]", "value": 97.1, "unit": "%"}, {"measurement": "Percent Disease Control, Primary screen", "setting": "[1]", "value": 96.2, "unit": "%"}]}
{"compound": "CC(C)(C)C(O)(CCc1ccc(Cl)cc1)Cn1cncn1", "note": "(centres unmarked) [Tebuconazole]", "values": [{"measurement": "Percent Disease Control", "setting": "Podosphaera xanthii", "value": 67.0, "unit": "%"}]}
{"compound": "Mancozeb", "values": [{"measurement": "Percent Disease Control", "setting": "Mycosphaerella fijiensis", "value": 83.7, "unit": "%"}, {"measurement": "Percent Disease Control", "setting": "[2]", "value": 52.9, "unit": "a %"}]}
